Experimental data taken from PMC5461267, “Membrane Guanylate Cyclase catalytic Subdomain: Structure and Linkage with Calcium Sensors and Bicarbonate” (Frontiers in Molecular Neuroscience, 2017).
Where a chain is given by its changes, count along the chain named. pEC50: −log10 of the molar value.

Experiments:
[1] = target: T1, ROS-GC1 (rod outer segment guanylate cyclase type 1), full-length recombinant (Bos taurus, UniProt P55203, A1013R/D934A); assay: biochemical
T1 construct: gene GUCY2D
T1 sequence (P55203 57-1110 D934A/A1013R): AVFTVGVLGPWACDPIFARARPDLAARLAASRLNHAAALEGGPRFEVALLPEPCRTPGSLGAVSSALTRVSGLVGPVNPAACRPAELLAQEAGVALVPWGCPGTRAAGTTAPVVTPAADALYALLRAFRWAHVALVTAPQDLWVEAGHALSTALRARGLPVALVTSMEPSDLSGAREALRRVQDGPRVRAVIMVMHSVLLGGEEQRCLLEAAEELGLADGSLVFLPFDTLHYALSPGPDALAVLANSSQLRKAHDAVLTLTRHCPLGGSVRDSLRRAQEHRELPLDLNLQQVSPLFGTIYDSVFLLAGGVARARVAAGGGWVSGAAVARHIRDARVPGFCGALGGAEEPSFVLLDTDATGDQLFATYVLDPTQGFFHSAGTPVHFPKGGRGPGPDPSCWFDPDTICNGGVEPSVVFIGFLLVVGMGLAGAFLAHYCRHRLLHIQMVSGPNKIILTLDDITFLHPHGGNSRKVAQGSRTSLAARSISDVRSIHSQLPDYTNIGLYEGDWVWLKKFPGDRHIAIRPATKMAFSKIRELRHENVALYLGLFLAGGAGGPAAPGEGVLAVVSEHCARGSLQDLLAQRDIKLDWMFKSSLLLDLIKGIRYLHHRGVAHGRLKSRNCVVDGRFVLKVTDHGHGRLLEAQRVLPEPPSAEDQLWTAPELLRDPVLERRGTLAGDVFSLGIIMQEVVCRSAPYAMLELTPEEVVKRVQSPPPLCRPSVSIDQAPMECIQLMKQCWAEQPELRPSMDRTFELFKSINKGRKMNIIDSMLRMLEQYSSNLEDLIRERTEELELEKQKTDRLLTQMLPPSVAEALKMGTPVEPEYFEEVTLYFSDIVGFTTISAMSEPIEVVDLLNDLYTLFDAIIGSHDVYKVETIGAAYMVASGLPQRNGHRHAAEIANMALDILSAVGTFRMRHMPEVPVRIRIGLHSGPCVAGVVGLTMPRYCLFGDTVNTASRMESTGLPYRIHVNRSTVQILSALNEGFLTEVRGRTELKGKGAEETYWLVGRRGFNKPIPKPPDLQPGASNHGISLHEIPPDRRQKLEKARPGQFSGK

[2] = target: T2, ROS-GC1 (rod outer segment guanylate cyclase type 1), full-length recombinant (Bos taurus, UniProt P55203, A1013R); assay: biochemical
T2 construct: gene GUCY2D
T2 sequence (P55203 57-1110 A1013R): T1 sequence (P55203 57-1110 D934A/A1013R) with A878D

In the case of `O=C(O)O` [bicarbonate], the pEC50 [1] was about 1.52 and the pEC50 [2] was 1.60.
